Measured values from patent publication US7300784B2 (priority 2001, dated 2007).
Several values for one entry are separate records, joined by “and”; a condition that tells them apart may be missing. Equal values may be shown once. Read-outs that look alike come from different tables or passages of the source.

What was measured:
[1] = test system: nitrile hydratase of Rhodococcus sp. Cr4; assay: Substrate specificity of the purified nitrile hydratase (amide formation by HPLC); assay type: biochemical; settings: for substrate suitability: purified nitrile hydratase
Method: (§1) The standard assay method for the nitrile hydratase activity used in the following Examples as follows. The enzyme reaction is initiated by adding 3-cyanopyridine or 2-hydroxy-4-methylthiobutyronitrile (HMBN) as the substrate compound. In the case of 3-cyanopyridine, incubation was continued at 20° C. for 10 minute, in the case of HMBN, at 20° C. for 15 minutes. When 3-cyanopyridine was used in the reaction, 0.1 ml of 2 N hydrochloric acid was added to the reaction and the mixture was shaken vigorously to stop the reaction; when HMBN was used in the reaction, 0.1 ml of the reaction solution was added to 0.9 ml of 0.1% (v/v) phosphoric acid and the mixture was shaken vigorously to stop the reaction. The reaction solution was analyzed by HPLC.
• 0.3 M 3-cyanopyridine was added to initiate the reaction. • The mixture was incubated with shaking at 20° C. for […]. • 2 N HCl was added to stop the reaction. • Centrifugation. • HPLC analysis.
The substrate specificity of the enzymewas examined. With the standard composition reaction solution shown in table 2, 2.92 U enzyme was incubated with various types of substrates, instead of 3-cyanopyridine; the generation of amides in the reaction solution was analyzed by HPLC. Thus, the relative activity was determined. The types of substrate compounds added, final concentrations thereof, reaction times, and HPLC conditions used for the analyses of products corresponding to the respective substrates are shown in Table 6. The HPLC conditions (1)-(9) are indicated next to Table 6.
The conditions for HPLC were as follows: • (1) Column: Waters Spherisorb 5 μODS2 (4.6×150 mm); • Solvent: 10 mM KH2PO4(pH 2.8)/acetonitrile (v/v)=9:1; • Flow rate: 1.0 ml/min; • Detection: 230 nm; • Injection volume: 5 μl. • (2) Column: Waters Spherisorb 5 μODS2 (4.6×150 mm); • Solvent: 10 mM KH2PO4(pH 2.8)/acetonitrile (v/v)=9:1; • Flow rate: 1.0 ml/min; • Detection: 230 nm; • Injection volume:5 μl. • (3) Column: Waters Spherisorb 5 μODS2 (4.6×150 mm); • Solvent: 5 mM KH2PO4 (pH 2.8)/acetonitrile (v/v)=12:7; • Flow rate: 1.0 ml/min; • Detection: 230 nm; • Injection volume: 5 μl. • (4) Column: Waters Spherisorb 5 μODS2 (4.6×150 mm); • Solvent: 10 mM KH2PO4(pH 2.5)/acetonitrile (v/v)=99:1; • Flow rate: 1.0 ml/min; • Detection: 210 nm; • Injection volume: 5 μl. • (5) Column: Waters Spherisorb 5 μODS2 (4.6×150 mm); • Solvent: 10 mM KH2PO4(pH 2.5)/acetonitrile (v/v)=99:1; • Flow rate: 1.0 ml/min; • Detection: 230 nm; • Injection volume: 5 μl. • (6) Column: Spherisorb S5ODS2 (4.6×150 mm) • Solvent: 0.1% (v/v) phosphate/acetonitrile (v/v)=99:1; • Flow rate: 1.0 ml/min; • Detection: 210 nm; • Injection volume: 5 μl. • (7) Column: Spherisorb S5ODS2 (4.6×150 mm); • Solvent: 0.1% (v/v) phosphate/acetonitrile (v/v)=9:1; • Flow rate: 1.0 ml/min; • Detection: 210 nm; • Injection volume: 5 μl; • Temperature: 40° C. • (8) Column: Spherisorb S5ODS2 (4.6×150 mm); • Solvent: 0.1%(v/v) phosphate/acetonitrile (v/v)=9:1; • Flow rate: 1.0 ml/min; • Detection: 230 nm; • Injection volume: 5 μl • Temperature: 40° C. • (9) Column: Spherisorb S5ODS2 (4.6×150 mm); • Solvent: 5 mM KH2PO4 (pH 2.8)/acetonitrile (v/v)=12:7; • Flow rate: 1.0 ml/min; • Detection: 210 nm; • Injection volume: 5 μl; • Temperature: 40° C. 13. The Effect of Inhibitors on the Enzymatic Activity

[2] = test system: nitrile hydratase of Rhodococcus sp. Cr4; assay type: biochemical; settings: for effect on enzyme activity (words): inhibitors
Method: as §1
• 10% (v/v) HMBN was added to initiate the reaction. • The mixture was incubated with shaking at 20° C. for 10 minutes. • 0.1% (v/v) H3PO4 was added to stop the reaction. • Centrifugation. • HPLC analysis.
Inhibitors to the enzyme were studied. With the standard composition of reaction solution shown in Table 1, various inhibitors were added at a final concentration 1.0 mM or 0.1 mM to the solutions containing 2.92 U enzyme; after the mixtures were incubated at 20° C. for 10 minutes, the reaction was carried out for 15 minutes.

Rhodococcus sp. Cr4 = assay type: cell-based
[3] = test system: nitrile hydratase of Rhodococcus sp. Cr4; assay type: biochemical
[4] = test system: Rhodococcus rhodochrous ATCC 332878; assay type: cell-based
[5] = test system: nitrile hydratase of Rhodococcus sp. Cr4; assay: Effect of coexisting Ni++ ion with various substrates; assay type: biochemical; settings: for effect of Ni++ on activity with this substrate: Ni++ added
Method: Then, with the standard composition of reaction solution shown in table 2, various types of substrates, instead of 3-cyanopyridine, were added to the solutions containing 2.92 U enzyme to study their effects on the activity. […] The addition of Ni^++ ion was assumed to specifically enhance the reaction efficiency when the substrate was a α-hydroxynitrile (Table 11).
The incubation was prolonged for 10 minutes at 20° C. using 2.92 U enzyme. 17. Determination of N-Terminal Amino Acid Sequence

[6] = test system: nitrile hydratase of Rhodococcus sp. Cr4; assay: Effect of substrate concentration (Km value, Lineweaver-Burk plot); assay type: biochemical; settings: 20° C., 15 minutes
Method: The Km value for HMBN was determined from the S-V plot (FIG. 4) and Lineweaver-Burk plot (FIG. 5). 0.0585 U of the enzyme was added to solutions containing HMBN at various concentrations and the reactions were incubated at 20° C. for 15 minutes. The reactions were analyzed by HPLC.
In addition, the Km value for 3-cyanopyridine was determined from the S-V plot (FIG. 6) and Lineweaver-Burk plot (FIG. 7). Similarly, 0.0265 U of the enzyme was added to solutions containing 3-cyanopyridine at various concentrations and the reactions were incubated at 20° C. for 15 minutes. The reactions were analyzed by HPLC.

[7] = compound used as substrate, activity for 3-cyanopyridine = 100%, 20° C., 2.92 U enzyme
[8] = compound used as substrate, methanol added (final conc. 20% v/v), 20° C., 2.92 U enzyme
[9] = compound 1.0 mM, Free = 100, HMBN substrate, 20° C.

C=CC#N [Acrylonitrile]
Relative activity (%) [1, 7]: 114%

CC(C)C#N [Isobutyronitrile]
Relative activity (%) [1, 8]: 40.9%

[N-]=[N+]=[N-].[Na+] [NaN3]
Relative activity (%) [2]: 98.5%

NO [Hydroxylamine]
Relative activity (%) [2, 9]: 62.1%
effect on enzyme activity (words) [2]: markedly inhibited

[Cl][Ni][Cl] [NiCl2]
Relative activity (%) (Rhodococcus sp. Cr4): 186%
effect on nitrile hydratase activity in resting cell reaction (Rhodococcus sp. Cr4): enhanced
Relative activity (%) [3]: 196% and 185% and 171% and 197% and 195% and 184%
effect on enzyme activity (words) [3]: enhanced
enhancement of the enzymatic activity [3]: enhanced twice
Relative activity (%) [4]: 193%

[Ca+2].[Cl-].[Cl-] [CaCl2]
Relative activity (%) [3]: 96.4%

CCCC#N [n-Butyronitrile]
activity, Free [5]: 100
activity, NiCl2 (1 mM) [5]: 94
Relative activity (%) [1, 8]: 379%
substrate suitability [1]: suitable substrates

O=S(=O)([O-])[O-].[Fe+2] [FeSO4]
Relative activity (%) [3]: 78.9%

CCCCC#N [n-Valeronitrile]
Relative activity (%) [1, 8]: 118%

O=S(=O)([O-])[O-].[Cu+2] [CuSO4]
Relative activity (%) [3]: 109%

N#CCO [Hydroxyacetonitlile]
activity, Free [5]: 0
activity, NiCl2 (1 mM) [5]: 0

O=C(O)c1cc[c]([Hg][Cl])cc1 [p-Chloromercuribenzoate]
Relative activity (%) [2, 9]: 97.7%

N#Cc1cccc(Cl)c1 [m-Chlorobenzonitrile]
Relative activity (%) [1]: 7.18%

N#Cc1ccncc1 [4-Cyanopyridine]
activity, Free [5]: 100
activity, NiCl2 (1 mM) [5]: 99
Relative activity (%) [1, 7]: 127%

CC=CC#N [Crotononitrile]
activity, Free [5]: 100
activity, NiCl2 (1 mM) [5]: 103
Relative activity (%) [1, 7]: 87.4%

N#Cc1ccccc1Cl [o-Chlorobenzonitrile]
Relative activity (%) [1, 8]: 58.6%

N#Cc1ccccn1 [2-Cyanopyridine]
activity, Free [5]: 100
activity, NiCl2 (1 mM) [5]: 97
Relative activity (%) [1, 7]: 223%
substrate suitability [1]: suitable substrates

CC#N [Acetonitrile]
Relative activity (%) [1]: 14.6%

O=C(O)CI [Iodoacetate]
Relative activity (%) [2]: 97.0%

O=C(O)CN(CCN(CC(=O)O)CC(=O)O)CC(=O)O [EDTA]
Relative activity (%) [2]: 101%

NCCS [Cysteamine]
Relative activity (%) [2]: 106%

NC(N)=O [Urea]
Relative activity (%) [2, 9]: 95.7%

[Cl][Mn][Cl] [MnCl2]
Relative activity (%) [3]: 96.7%

CCN1C(=O)C=CC1=O [N-Ethylmaleimide]
Relative activity (%) [2, 9]: 101%

N#Cc1cccnc1 [3-Cyanopyridine]
activity, Free [5]: 100
activity, NiCl2 (1 mM) [5]: 99
Relative activity (%) [1, 7]: 100%
Relative activity (%) [1, 8]: 76.5%
Km [6]: 1.38 mM

N#CC(O)c1ccccc1 (centres unmarked) [Manderonitlile]
activity, Free [5]: 100
activity, NiCl2 (1 mM) [5]: 201
effect of Ni++ on activity with this substrate [5]: enhanced twice

N#CCC(N)=O [2-Cyanoacetamide]
Relative activity (%) [1, 7]: 46.3%

N#Cc1ccc(Cl)cc1 [p-Chlorobenzonitrile]
Relative activity (%) [1]: 28.4%

N#Cc1ccccc1 [Benzonitrile]
Relative activity (%) [1]: 138%

O[C@H](CS)[C@H](O)CS (racemic) [Dithiothreitol]
Relative activity (%) [2, 9]: 93.4%

CCCCCC#N [n-Capronitrile]
Relative activity (%) [1, 8]: 18.1%

[Cl][Fe]([Cl])[Cl] [FeCl3]
Relative activity (%) [3]: 100%

CSCCC(O)C#N (centres unmarked) [HMBN, 2-hydroxy-4-methylthiobutyronitrile]
activity, Free [5]: 100
activity, NiCl2 (1 mM) [5]: 196
effect of Ni++ on activity with this substrate [5]: enhanced twice
Relative activity (%) [1, 7]: 154%
Km [6]: 1.43 mM

CCC#N [Propionitrile]
Relative activity (%) [1, 7]: 173%

CC(C)CC#N [Isovaleronitrile]
Relative activity (%) [1, 8]: 2.71%

C/C(N)=C/C#N [β-aminochlotononitlile]
activity, Free [5]: 0
activity, NiCl2 (1 mM) [5]: 0

NNc1ccccc1 [Phenylhydrazine]
Relative activity (%) [2, 9]: 8.19%
effect on enzyme activity (words) ([2]; listed as phenyl hydrazine): markedly inhibited
effect on enzyme activity (words) ([2]; listed as phenylhydrazine): inhibited

O=C(O)c1cc(SSc2ccc([N+](=O)[O-])c(C(=O)O)c2)ccc1[N+](=O)[O-] [5-5′-Dithiobis]
Relative activity (%) [2]: 99.1%

C=C(C)C#N [Methacrylonitrile]
Relative activity (%) [1, 7]: 93.7%

N#CCc1c[nH]c2ccccc12 [3-Indolylacetonitrile]
Relative activity (%) [1, 8]: 2.33%

N#CCC#N [Malononitrile]
substrate suitability [1]: suitable substrates

O=S(=O)(O)c1cc(O)c(O)c(S(=O)(=O)O)c1 [Tiron]
Relative activity (%) [2, 9]: 132%

N#CCCO [Etylene cyanohydrin]
activity, Free [5]: 100
activity, NiCl2 (1 mM) [5]: 91

N#CCN [Aminoacetonitlile]
activity, Free [5]: 0
activity, NiCl2 (1 mM) [5]: 0

N#CCCN [3-aminopropyonitlile]
activity, Free [5]: 100
activity, NiCl2 (1 mM) [5]: 97

[Cl][Hg][Cl] [HgCl2]
Relative activity (%) ([3]; metal 1.0 mM, Free = 100, incubated 20° C. 10 minutes): 7.48%
effect on enzyme activity (words) ([3]; metal ions): inhibited
effect on enzyme activity (words) ([3]; metal ions, listed as Hg^++): markedly inhibited

O=S(=O)([O-])[O-].[Zn+2] [ZnSO4]
Relative activity (%) [3]: 84.1%

O=[N+]([O-])[O-].[Ag+] [AgNO3]
Relative activity (%) [3]: 7.85%
effect on enzyme activity (words) [3]: markedly inhibited

N#Cc1cnccn1 [Cyanopyrazine]
Relative activity (%) [1, 7]: 114%

N[C@@H]1CONC1=O [D-Cycloserine]
Relative activity (%) [2, 9]: 94.8%
